The text below walks through data of patent US20130345053A1, “Fungicidal Composition” (ICA LABORATORIES CC, priority 2011, published 2013).

In one assay the test system is penicillium expansum. The experiment in a line: in vivo efficacy on Golden apples, preventive sprinkling then inoculation, fruit affected by rot counted. The note with it: for Efficacy: Golden apples, 20° C., scored from three weeks; for control of the growth of the fungus (in words): hexanal 1000 ppm, imidazalil 250 ppm, alone or combined, apples. On the procedure: This example provides an illustration of the efficacy of the composition according to the invention for combating penicillium expansum on apples. The trial was carried out in vivo.
The fungicidal compositions were used in solution at the doses detailed in Table 2. Apples of the Golden variety, untreated after harvest, were treated by sprinkling a fungicidal solution up to the run-of limit at the doses described in Table 2 (10 apples per product). Six hours later, the fruit was inoculated by sprinkling an aqueous suspension at 150000 spores/ml of […]. obtained from a pre-culture on PDA medium. This inoculation by sprinkling was carried out up to the run-off limit. The fruit was then stored in the dark at 20° C. and 100% relative humidity and the scores for the disease were measured three weeks later, for a period of two weeks. The numbers of fruit samples affected by rot were counted and, in comparison with the untreated control, a percentage efficacy was calculated using the formula
(§1) (Diameter of the Control−Diameter of the Trial/Diameter of the Control×100)

For another assay, the system named is geotrichum candidum. The assay is described as follows: in vivo efficacy on valencia citrus, wound inoculation then treatment six hours later, fruit affected by rot counted. The note with it: 5° C., 28 days. On the procedure: This trial was carried out in vivo.
The fungicidal compositions were used in solution at the doses detailed in Table 3. Citrus of the valencia variety, untreated after harvest, was treated by sprinkling a fungicidal solution up to the run-off limit at the doses described in Table 3 of results (10 citrus per product). First inoculation by pre-made wounds was made with a suspension of 150000 spores/ml of geotrichum candidum, obtained from a pre-culture on PDA medium. Then six hours later, the product tested was applied up to the run-off limit. The fruit were then stored in the dark at 5° C. and 100% relative humidity and the scores for the disease were measured 28 days later.
The number of fruit samples affected by rot was counted and, in comparison with the untreated control, a percentage efficacy was calculated and show in table 3 below: […]

In the next assay the test system is penicilium italicum. The experiment in a line: in vitro efficacy on PDA medium in microtitre plate wells (radial growth of colony). It is filed as cell-based. The settings on record: for control of the growth of the fungus (in words): 60 ppm each, alone or combined; for Radial growth of fungus / Efficacy: 60 ppm, PDA medium, 22° C.; for Radial growth of fungus: control 20 mm; for Efficacy: versus untreated control. The protocol: This example illustrates the efficacy of the composition according to the invention for controlling penicilium italicum. The trial was carried out in vitro.
The fungicidal compositions were used in the form of the formulated product incorporated in PDA medium in superfusion at doses in an amount of 6 μl of fungicidal solutions together with 1000 μl of PDA per well of 20 mm in diameter of a microtitre plate (four repeats/product). One day later, a microdrop of an aqueous suspension of penicilium italicum supplemented with 400 ppm of Tween 20 was brought to the surface of each well of the microtitre plate. The cultures were then incubated at 22° C. at 60% relative humidity under subdued light until the control culture (without fungicide) had covered the entire surface of the well. The diameter of each colony was then measured and, in comparison with untreated control, a percentage efficacy was calculated using the formula
as §1

Consider `C=CCOC(Cn1ccnc1)c1ccc(Cl)cc1Cl` (stereo not drawn) [Imazalil, imazalil], for which the Efficacy stood at 28% with penicillium expansum (250 ppm) and 0% in the assay on geotrichum candidum (500 ppm). The “control of the growth of the fungus (in words)” value (shortened to “control”) in the assay on penicillium expansum is reported as “did not control the growth of the fungus”.

In the case of `CCCN(CCOc1c(Cl)cc(Cl)cc1Cl)C(=O)n1ccnc1` [procloraz, prochloraz], in the assay on penicilium italicum, the “control” value is on record as “poor results”, the “Radial growth of fungus” value came out at 18 mm and the Efficacy is listed as 10%.

`CCCCCC=O` [hexanal]: the “control” value in the assay on penicilium italicum is on record as “poor results”; in the assay with penicillium expansum, “did not control the growth of the fungus”. Moreover, the “Radial growth of fungus” value with penicilium italicum is reported as 19 mm. In addition, the Efficacy with penicilium italicum was determined as 5%; with penicillium expansum (1000 ppm), 12%; in the assay on geotrichum candidum (1500 ppm) it was 20%.
